Laboratory results as given in US20220402917A1, “COMPOUND AS SMALL MOLECULE INHIBITOR PD-1/PD-L1 AND APPLICATION THEREOF” (MEDSHINE DISCOVERY INC., priority 2019, published 2022).

Legend:
PD1/PD-L1 [1] = biological target: T1, PD1/PD-L1 (Homo sapiens, UniProt Q9NZQ7); assay: NFAT activity test (TCR Activitor/PD-L1 CHO cells with PD-1/NFAT Reporter-Jurkat cells); format: cell-based; set-up: host or cells: TCR Activitor/PD-L1 CHO cells; PD-1/NFAT Reporter-Jurkat cells; details: TCR Activitor/PD-L1 CHO cells + PD-1/NFAT Reporter-Jurkat cells, 5 hours, luciferase
Outline: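 TCR activator/PD-L1 CHO cells were pretreated 30 min at 37 °C with compound (20 μM to 0.25 nM, 5-fold steps, 2% DMSO). PD-1/NFAT reporter Jurkat cells were then added for 5 h at 37 °C. NFAT-driven luciferase read by Bright-Glo luminescence, normalised to Min/Max, IC50 from 4-parameter fit.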
Target sequence in this assay (Q9NZQ7 19-290): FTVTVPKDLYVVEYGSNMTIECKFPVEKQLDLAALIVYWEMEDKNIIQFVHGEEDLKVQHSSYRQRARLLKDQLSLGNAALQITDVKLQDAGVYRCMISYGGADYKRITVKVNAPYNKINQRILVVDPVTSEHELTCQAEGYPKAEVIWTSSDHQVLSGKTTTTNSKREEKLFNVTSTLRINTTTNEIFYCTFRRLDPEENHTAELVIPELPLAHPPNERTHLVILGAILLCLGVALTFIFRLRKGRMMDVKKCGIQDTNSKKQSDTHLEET

PD1/PD-L1 [2] = biological target: T1, PD1/PD-L1; assay: PD-1/PD-L1 homogeneous time-resolved fluorescence (HTRF) binding experiment; set-up: purchased BPS Biosciences; details: HTRF (TR-FRET), PD-L1-biotin, PD1-Eu
Text: Experimental Example 1: PD-1/PD-L1 Homogenouse Time-Resolved Fluorescence (HTRF) Binding Experiment
When the PD-1 molecule as the donor is very close to the PD-L1 molecule as the acceptor, the donor molecule will transfer the energy to the receptor molecule, which in turn causes the receptor molecule to emit fluorescence. The ability of small molecules to prevent the binding of PD-L1 to PD-1 can be tested by detecting the intensity of fluorescence. A homogeneous time-resolved fluorescence (HTRF) binding experiment is used to detect the ability of the compounds of the present disclosure to inhibit the binding of PD-1/PD-L1.
PD1/PD-L1 TR-FRET detection kit was purchased from BPS Biosciences. Nivo multi-label analyzer (PerkinElmer).
PD1-Eu, Dye-labeled acceptor, PD-L1-biotin and compounds to be tested were diluted with the buffer in the kit. The compounds to be tested were subjected to 5-fold dilution to eight concentration gradients with a row gun. That is, from 40 μM to 0.5 nM, the DMSO concentration was 4%, and a double-well experiment was set up. 5 μL of inhibitor with each concentration gradient were added to the microwell plate, and 5 μL buffer containing 4% DMSO and 5 μL PD-L1-biotin (PD-L1-biotin) (60 nM) were added into well with the maximum signal (Max) and the well with the minimum signal (Min), only 5 μL of buffer was added to the well with the minimum signal (Min), and the incubation was conducted at 25° C. for 20 minutes. After the incubation was completed, 5 μL of diluted PD1-Eu (10 nM) and […] were added to each well. The reaction system was placed at 25° C. for 90 minutes. The TR-FRET signal was read by a multi-label analyzer after the reaction was completed.
Using the equation (sample−Min)/(Max−Min)×100% to convert the raw data into inhibition rate, and the IC50 value can be obtained by curve fitting with four parameters (obtained from log(inhibitor) vs. response—Variable slope mode in GraphPad Prism). Table 1 provides the inhibitory activity of the compounds of the examples of the present disclosure on PD1/PD-L1 binding
Target sequence in this assay (Q9NZQ7 19-239 limits assumed): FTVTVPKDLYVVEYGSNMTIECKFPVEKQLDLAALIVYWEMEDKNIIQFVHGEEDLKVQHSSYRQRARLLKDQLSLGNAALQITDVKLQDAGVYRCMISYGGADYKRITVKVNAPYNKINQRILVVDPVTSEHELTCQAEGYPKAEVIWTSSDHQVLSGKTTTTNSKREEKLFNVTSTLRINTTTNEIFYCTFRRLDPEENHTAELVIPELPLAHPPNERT

[3] = biological target: T2, PD-L1 in MDA-MR-231 cells (Homo sapiens, UniProt Q9NZQ7); assay: Effect on expression level of PD-L1 in MDA-MR-231 cells (FACS); format: cell-based; details: 24 hours incubation, FACS detection of cell surface PD-L1
T2 construct: endogenous in cells; host or cells: MDA-MB-231
T2 sequence (Q9NZQ7 19-290): as the sequence (Q9NZQ7 19-290) above
Outline: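 MDA-MB-231 cells (1×10^5/well) were incubated 24 h at 37 °C with 5-fold serially diluted compounds. Cells were detached with 10 mM EDTA, then stained with anti-human PD-L1 and LIVE/DEAD dye (4 °C, 30 min) and fixed. Surface PD-L1 was measured by flow cytometry.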

Maximum effect (induction fold) (PD1/PD-L1 [1]): 4.84 induction fold
IC50 (PD1/PD-L1 [1]; read-out: IC50, inhibitory activity on PD1/PD-L1 binding (NFAT activity test)): 18.4 nM
IC50 (PD1/PD-L1 [2]): 3.68 nM
IC50 [3]: 0.22 nM
SMILES: Cc1cc(C(=O)Nc2cccc(-c3cccc(Nc4nc(C(F)F)nc5cc(CN6CC[C@@H](O)C6)cnc45)c3C)c2Cl)nc2c1CCN(CC(=O)O)C2 [Compound 23]
